Results from patent publication US20240315991A1, “USES OF HNF4 ALPHA AGONISTS” (Sanford Burnham Prebys Medical Discovery Institute, priority 2023, published 2024).
Entries after “also recorded” stand apart in the source; their conditions may differ.

Legend:
[1] = test system: total cellular nicotinamide adenine dinucleotide (NAD); experiment: Nicotinamide adenine dinucleotide assay in liver lysate; assay type: in vivo, mouse; conditions: HFD+NCT vs HFD, 10 weeks
Protocol: (§1) NCT oral administration. Four-week-old male C57BL/6J (JAX cat #000664) mice were purchased from Jackson laboratory and were maintained in a 12 h light/dark cycle throughout the experiment. Prior to the experiments, mice were acclimated for 2 weeks. Six-week-old mice with similar body weights were randomized to a normal diet (NC), a high fat diet (HFD) (Research Diets, cat #D12492 60 kcal % fat) or HFD containing 4000 ppm NCT (HFD+NCT) (Research Diets, 60 kcal % fat+4000 ppm NCT), which was calculated to provide approximately 400 mg/kg/d NCT. HFD chow containing NCT was made with gray dye to distinguish it from regular HFD chow that had green dye. Mice for each treatment group were placed in separate cages. Equal amounts of fresh chow were provided every week to all mice. Body weight gain and food intake were measured every week for 10 weeks. After 10 weeks of chow treatment, mice were sacrificed for analysis. All animal experiments were approved by the Institutional Animal Care and Use Committee (IACUC) of the Sanford Burnham Prebys Medical Discovery Institute in accordance with national regulations. Sample size was chosen based on the prior study of NCT delivered by IP injection.
Nicotinamide adenine dinucleotide assay. Total NAD level in liver lysate was analyzed according to manufacturer's instructions using a calorimetric NAD+/NADH assay kit (Cat #MET-5014, Cell Biolabs, Inc. USA). […]

[2] = test system: VDAC1; experiment: VDAC1 immunofluorescence of liver sections; assay type: in vivo, mouse; conditions: HFD+NCT vs HFD, FIGS. 3A-3C
Protocol: as §1, with “All animal experiments were approved by the Institutional Animal Care and Use Committee (IACUC) of the Sanford Burnham Prebys Medical Discovery Institute in accordance with national regulations. Sample size was chosen based on the prior study of NCT delivered by IP injection.” left out
Immunofluorescence. […] Slides were mounted using fluorescence mounting medium and images were obtained at ×40 magnification using an Olympus IX71 fluorescence microscope. Fluorescence intensity of HNF4α-stained nuclei and VDAC stained mitochondria was calculated using MetaMorph TL software (version 7.6.5.0, Olympus). Fold change was calculated by normalizing to values from mice fed NC.

[3] = test system: citrate synthase; experiment: Citrate synthase activity in liver homogenate; assay type: in vivo, mouse; conditions: HFD+NCT vs HFD, FIGS. 3A-3C
Protocol: as §1, with “Sample size was chosen based on the prior study of NCT delivered by IP injection.” left out
Citrate synthase activity. Citrate synthase activity in liver homogenate was measured according to manufacturer's instructions using a calorimetry based MitoCheck Citrate Synthase Activity Assay Kit (Cat #701040, Cayman Chemicals, USA).

[4] = test system: PPARGC1A(PGC1a); experiment: Western blotting of liver, PPARGC1A(PGC1a); assay type: in vivo, mouse; conditions: HFD+NCT vs HFD, FIGS. 4A-4C
Protocol: as §1
Western blotting. Mouse liver extracts were prepared by incubation in RIPA buffer (Invitrogen) containing protease inhibitors (Calbiochem, SanDiego, CA). Protein was quantified by BCA assay (Thermo Scientific). […]

[5] = test system: blood alanine transaminase (ALT); experiment: Liver profile analysis, blood ALT; assay type: in vivo, mouse; conditions: mice fed on HFD, HFD+NCT vs HFD, FIG. 5I
Protocol: as §1, with “All animal experiments were approved by the Institutional Animal Care and Use Committee (IACUC) of the Sanford Burnham Prebys Medical Discovery Institute in accordance with national regulations. Sample size was chosen based on the prior study of NCT delivered by IP injection.” left out
Liver profile analysis. […] The levels of multiple analytes, including alkaline phosphatase (ALP), alanine aminotransferase (ALT), gamma glutamyl transferase (GGT), bile acids (BA), total bilirubin (TBIL), albumin (ALB), blood urea nitrogen (BUN), total cholesterol (CHOL) were quantified using a VetScan VS2 Chemistry Analyzer (Abaxis North America, USA).

[6] = test system: Sirt1 mRNA; experiment: RT-PCR of primary human hepatocytes, Sirtuin1; assay type: cell-based; conditions: HEP-fat media, NCT 5, 15, and 40 μM, FIG. 4G
Protocol: (§2) Primary human hepatocytes. Experiments with primary human hepatocytes were performed by CN-Bio (Cambridge, UK). Briefly, primary human hepatocytes (PHHs), human Kupffer cells (HKs) and human stellate cells (HSCs) were seeded onto CN-Bio's PhysioMimix LC12 MPS culture plates at 6×10^5 cells for PHHs and 6×10^4 cells for HKs and HSCs in 1.6 ml of CN-Bio's HEP-lean media with 5% FCS. Throughout the experiment the cells were maintained at a flow rate of 1 μl/s. After 24 hours (Day 1) of seeding, the media was changed to HEP-lean media and the cells were incubated until day 4 to allow the cells to form microtissues. At day 4 post seeding, media was changed to HEP-fat media and treated with DMSO or NCT (5, 15, and 40 μM). Media was replaced on days 6 and 8. Cells were harvested on day 10 for RNA extraction and culture media was collected for ELISA analysis.
(§3) RT-PCR. […] Quantitative real time PCR (RT-PCR) analysis was performed using SYBR® Select Master Mix (Applied Biosystems) and an ABI 7900HT thermal cycler (Applied Biosystems, Thermo Fisher Scientific). Ct values were normalized to 18s rRNA and are expressed as fold change over samples from mice fed NC or cultured human hepatocytes without NCT.

[7] = test system: TNFα mRNA; experiment: RT-PCR of primary human hepatocytes, TNFα; assay type: cell-based; conditions: HEP-fat media, NCT 5, 15, and 40 μM, dose-responsive manner, FIG. 5F
Protocol: as §2, §3

[8] = test system: IL-6 protein; experiment: ELISA of culture media of primary human hepatocytes, IL-6; assay type: cell-based; conditions: HEP-fat media, NCT 5, 15, and 40 μM, FIG. 5D
Protocol: as §2

[9] = test system: cytochrome C mRNA; experiment: RT-PCR of primary human hepatocytes, cytochrome C; assay type: cell-based; conditions: 0 μM vs. each concentration of NCT, FIG. 3I
Protocol: as §2, §3

O=C(/C=C/c1ccc(O)c(O)c1)NCCc1ccc(O)cc1 [NCT, N-trans caffeoyltyramine]
total cellular NAD in liver [1]: increased; also recorded: substantial increase | VDAC1 level in liver [2]: reverse the depression | citrate synthase level in liver [3]: reverse the depression | PPARGC1A(PGC1a) protein level in mouse liver [4]: increase | blood alanine transaminase (ALT) level [5]: decrease | Sirt1 mRNA in primary human hepatocytes [6]: reverse the depression | TNFα mRNA level in cultured human hepatocytes [7]: decrease | IL-6 protein level secreted by cultured human hepatocytes [8]: decrease | cytochrome C mRNA levels in primary human hepatocytes [9]: non-significant
